Values after ≈ are worked out from the molar mass of the structure shown.
Tests used:
[1] = Solubility of the compound at pH 6.5; format: physicochemical; conditions: buffer
[2] = system: Rattus norvegicus; assay: Dose normalized AUC in po dosed rat; format: ADME, organism-based; conditions: in vivo
[3] = system: rat MDR1A; assay: Apparent permeability in pig LLC-PK1 expressing rat MDR1A; format: ADME, cell-based, Sus scrofa
[4] = Half-life in po dosed rat; format: ADME, organism-based; conditions: in vivo
[5] = Oral bioavailability in rat; format: ADME, organism-based; conditions: in vivo
[6] = system: Rattus norvegicus; assay: Volume of distribution in po dosed rat; format: ADME, organism-based; conditions: in vivo
[7] = Clearance in po dosed rat; format: ADME, organism-based; conditions: in vivo

Row | SMILES | solubility [1] [µM] | further results
1 | Cn1ncc2c(NC3(c4ccc(C(F)(F)F)cc4)CC3)nc(O)nc21 | 175 (≈ 61.1 µg/mL) | –
2 | Cn1ncc2c(NCc3ccc(C(F)(F)F)cn3)nc(Cl)nc21 | 176 (≈ 60.3 µg/mL) | –
3 | Cn1ncc2c(NC(C)(C)c3ccc(C(F)(F)F)cc3)nc(Cl)nc21 | 183 (≈ 67.7 µg/mL) | –
4 | Cn1ncc2c(NCCc3ccc(C(F)(F)F)cc3)nc(Cl)nc21 | 150 (≈ 53.4 µg/mL) | –
5 | Cn1ncc2c(NC3(c4ccc(C(F)(F)F)cc4)CC3)nc(Cl)nc21 | 156 (≈ 57.4 µg/mL) | –
6 | Cn1ncc2c(NCc3ccc(C(F)(F)F)cc3)nc(Cl)nc21 | 164 (≈ 56 µg/mL) | –
7 | Cn1ncc2c(N3CCCCC3c3ccc(C(F)(F)F)cc3)nc(Cl)nc21 (configuration not stated) | 138 (≈ 54.6 µg/mL) | –
8 | C[C@@H](Nc1nc(Cl)nc2c1cnn2C)c1ccc(C(F)(F)F)cc1 | 159 (≈ 56.6 µg/mL) | –
9 | Cc1nc(NC2(c3ccc(C(F)(F)F)cc3)CC2)c2cnn(C)c2n1 | – | AUC/dose [2]: 0.24 µM·kg·h/mg; Papp [3]: 0.82 to 26.7 ×10⁻⁶ cm/s; half-life [4]: 1.34 h; bioavailability [5]: 16.9%; Vd [6]: 3.78 L/kg; CL/F [7]: 44.4 mL/min/kg
10 | Cn1ncc2c(NCc3cccc(Cl)c3)nc(Cl)nc21 | 78 (≈ 24 µg/mL) | –
11 | Cn1ncc2c(NCc3ccccc3Cl)nc(Cl)nc21 | 44 (≈ 13.6 µg/mL) | –
12 | Cn1ncc2c(NC3(c4ccc(C(F)(F)F)cc4)CC3)nc(C3CC3)nc21 | 125 (≈ 46.7 µg/mL) | –
13 | Cn1ncc2c(N3CCCC3c3ccc(C(F)(F)F)cc3)nc(Cl)nc21 (configuration not stated) | 139 (≈ 53.1 µg/mL) | –
14 | FC(F)(F)c1ccc(C2(Nc3nc(Cl)nc4[nH]ncc34)CC2)cc1 | 105 (≈ 37.1 µg/mL) | AUC/dose [2]: 6.59 µM·kg·h/mg; Papp [3]: 1.63 to 26.5 ×10⁻⁶ cm/s; half-life [4]: 6.33 h; bioavailability [5]: 146%; Vd [6]: 4.64 L/kg; CL/F [7]: 8.44 mL/min/kg
15 | CNc1nc(Cl)nc2c1cnn2C | 206 (≈ 40.7 µg/mL) | –
16 | Cn1ncc2c(NCc3ccc(Cl)cc3)nc(Cl)nc21 | 145 (≈ 44.7 µg/mL) | –

— ChEMBL document CHEMBL4177679, “The identification of a novel lead class for phosphodiesterase 2 inhibition by fragment-based drug design” (Bioorg Med Chem Lett, 2017)
